13 molecules from patent US4874752A, “Benzoquinone derivatives and production thereof” (Takeda Chemical Industries, Ltd., priority 1982, dated 1989) can be followed below.

In one data set the target is T1, 5-lipoxygenase (Rattus norvegicus, UniProt P12527).
T1 construct: endogenous in cells; host or cells: RBL-1
T1 sequence (P12527 1-673): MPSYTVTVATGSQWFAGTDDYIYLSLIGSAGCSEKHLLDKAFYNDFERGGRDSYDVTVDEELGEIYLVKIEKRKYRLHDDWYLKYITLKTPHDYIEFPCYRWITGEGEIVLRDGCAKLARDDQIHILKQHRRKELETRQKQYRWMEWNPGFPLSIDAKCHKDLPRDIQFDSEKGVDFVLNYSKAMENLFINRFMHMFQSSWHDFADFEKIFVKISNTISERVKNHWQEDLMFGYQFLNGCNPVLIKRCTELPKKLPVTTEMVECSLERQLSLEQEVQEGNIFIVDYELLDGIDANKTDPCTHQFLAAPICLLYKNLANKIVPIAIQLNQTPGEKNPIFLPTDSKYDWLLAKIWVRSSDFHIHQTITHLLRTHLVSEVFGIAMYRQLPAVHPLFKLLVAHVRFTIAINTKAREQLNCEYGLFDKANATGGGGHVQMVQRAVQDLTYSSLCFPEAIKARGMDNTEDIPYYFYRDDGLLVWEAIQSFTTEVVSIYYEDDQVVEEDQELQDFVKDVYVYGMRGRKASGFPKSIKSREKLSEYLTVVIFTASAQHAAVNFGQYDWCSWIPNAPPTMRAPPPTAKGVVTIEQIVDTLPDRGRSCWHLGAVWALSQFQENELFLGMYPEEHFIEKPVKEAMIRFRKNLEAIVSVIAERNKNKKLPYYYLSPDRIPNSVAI
Put plainly: Inhibition of 5-lipoxygenase activity in RBL-1 cells (5-HETE production). Type of data set: cell-based. The conditions noted are these: 37° C., 20 minutes, arachidonic acid + A-23187. As to the method:
10^7 RBL-1 cells (rat basophilic leukemia cells) are suspended in 0.5 ml of MCM (mast cell medium), and, then, a test solution (0.5 ml of MCM, 50 μg of arachidonic acid, 10 μg of A-23187 and 1 μM or 10 μM of the quinone compound) is added. The reaction is conducted at 37° C. for 20 minutes. After completion of the reaction, 4 ml of ethanol including 1,4-dimethoxy-2-methyl-3-(3-methoxypropyl)naphthalene are added (0.5 μg/ml) are added as an internal reference. After shaking well, the mixture is allowed to stand at room temperature for 10 minutes. Then, the mixture was centrifuged (2000 r.p.m./min.) for 10 minutes and the supernatant is separated. This supernatant is concentrated under reduced pressure to about 200 μl. To the concentrate is added a high performance liquid chromatography solvent [CH3 CN(1500): CH3 OH(500): water (1100): acetic acid(2); pH 5.6 (adjusted with aqueous ammonia)] to make a total of 1 ml. A 200 μl portion of this solution is taken and 5-HETE (5-hydroxyeicosatetraenoic acid) is assayed by high performance liquid chromatography. The degree of inhibition of 5-HETE production (IE) is expressed in terms of […], where a is the peak height or area after correction with the peak of the internal reference standard in the absence of the quinone compound and b is the peak height or area after correction with the peak of the internal reference standard in the presence of the quinone compound.

A further data set concerns collagen biosynthesis. Put plainly: Inhibitory activity of collagen biosynthesis (collagen content of the uterus, with 17β-estradiol). Type of data set: in vivo, SD strain rats (female, 3 weeks old). The conditions noted are these: for Degree of inhibition: uterus collagen. On the procedure:
In accordance with the method of R. A. Salvador et al. [Arch. Biochem. Biophys. 174, 382 (1976)], 0.2 mg/kg of each test compound was intraperitoneally administered to SD strain rats (.female., 3 weeks old) once a day for 6 days. After that, the collagen content of the uterus was determined and compared with that of control experiment.
*Rats were used 3 animals as one group; initial body weights 41 ± 2- 4

Where [1] appears, read: 17β-estradiol + compound, 0.2 mg/kg i.p. once a day for 6 days.

For orientation: inhibition means the relative decrease from the control value, in per cent. For the molecule `COC1=C(OC)C(=O)C(CCCCOc2ccc(/C=C/C(=O)O)cc2)=C(C)C1=O`, on 5-lipoxygenase, the inhibition at 1 µM came to 72% and the inhibition at 10 µM amounted to 83.1%.

Regarding `COC1=C(OC)C(=O)C(CC=C(C)COc2ccc(/C=C/C(=O)O)cc2)=C(C)C1=O`, at 5-lipoxygenase, the inhibition at 1 µM was found to be 76.6% and the inhibition at 10 µM is 85.8%.

In the case of `COC1=C(C)C(=O)C(COc2ccc(CC(=O)O)cc2)=C(C)C1=O`, at 5-lipoxygenase, the inhibition at 1 µM came to 70.1% and the inhibition at 10 µM was found to be 81.5%.

Regarding `CC1=C(C)C(=O)C(c2nc3cc(C(C)C(=O)O)ccc3o2)=C(C)C1=O` (centres unmarked), at 5-lipoxygenase, the inhibition at 1 µM is 63.5% and the inhibition at 10 µM stood at 79.2%.

With `C[C@]12CC[C@@H]3c4ccc(O)cc4CC[C@H]3[C@@H]1CC[C@@H]2O` [17β-estradiol, reference compound], in the data set with collagen biosynthesis (17β-estradiol alone), the “Collagen content of uterus” value was found to be 3.45 ± 0.11 mg. Further, in the data set on collagen biosynthesis (17β-estradiol alone, 3 rats per group, initial body weight about 41 g), the “Body weight of rats” value was determined as 73 ± 3 g.

As to `NC1=NN(c2cccc(C(F)(F)F)c2)CC1` [BW755C, reference compound], on 5-lipoxygenase, the inhibition at 1 µM was 21.8% and the inhibition at 10 µM is 39.1%.

As for `CCCCCC#CCC#CCC#CCC#CCCCC(=O)O` [ETYA, Eicosatetraynoic acid, reference compound], at 5-lipoxygenase, the inhibition at 1 µM turned out to be 35.9% and the inhibition at 10 µM stood at 39.4%.

For `COC1=C(OC)C(=O)C(/C=C/C(=O)O)=C(C)C1=O` [drawing 30], in the data set with collagen biosynthesis (setting [1]), the “Collagen content of uterus” value stood at 2.53 ± 0.28 mg and the Degree of inhibition is on record as 51%.

Take `COC1=C(OC)C(=O)C(/C=C/C(C)=O)=C(C)C1=O` [drawing 31]: in the data set with collagen biosynthesis (setting [1]), the “Collagen content of uterus” value is on record as 2.98 ± 0.15 mg and the Degree of inhibition came out at 26%.

As to `COC1=C(OC)C(=O)C(COc2ccc(/C=C/C(=O)O)cc2)=C(C)C1=O` [drawing 32], in the data set on collagen biosynthesis (setting [1]), the “Collagen content of uterus” value was found to be 2.77 ± 0.25 mg and the Degree of inhibition is given as 38%.

As to `COC1=C(OC)C(=O)C(COc2ccc(/C=C/C(=O)O)cc2)=C(C)C1=O` [drawing 37], on 5-lipoxygenase, the inhibition at 1 µM is 73.9% and the inhibition at 10 µM was 83.5%.

On to `COC1=C(OC)C(=O)C(CC=C(C)COc2ccc(CC(=O)O)cc2)=C(C)C1=O` [drawing 38], for which, on 5-lipoxygenase, the inhibition at 1 µM worked out at 72.2% and the inhibition at 10 µM was determined as 83.3%.

Consider `COC1=C(OC)C(=O)C(CCCCCCCCCC(=O)N[C@@H](CCCNC(=N)N)C(=O)O)=C(C)C1=O` [n: 9, Z:CONHArg, 10-(2,3-dimethoxy-5-methyl-1,4-benzoquinon-6-yl)decanoyl-L-arginine], for which, in the data set on collagen biosynthesis (setting [1]), the “Collagen content of uterus” value worked out at 2.86 ± 0.75 mg and the Degree of inhibition stood at 33%.
